Results as given in patent US20080009418A1, “Selective Inhibitors” (Alchemia LTD., priority 2004, published 2008).

Columns and labels:
Human δ-opioid (DOP) = molecular target: T1, Human δ-opioid (DOP) (Homo sapiens, UniProt P41143); experiment: Radioligand binding, human δ-opioid (DOP) membranes, FlashPlate, [3H]-Bremazocine; conditions: compound at 10 μM, [3H]-Bremazocine
T1 construct: purchased Perkin Elmer Biosignal
How it was run: (§1)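 Cloned human receptor membranes were coated onto FlashPlate wells and incubated with radioligand and compound (added from a 0.5 mM DMSO daughter plate) for 1 hour at room temperature in the dark. Scintillation counting gave percent inhibition, with DMSO defining total and reference ligand defining non-specific binding.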

Human μ-opioid (MOP) = molecular target: T2, Human μ-opioid (MOP) (Homo sapiens, UniProt P35372); experiment: Radioligand binding, human μ-opioid (MOP) membranes, FlashPlate, [3H]-Naloxone; conditions: compound at 10 μM, [3H]-Naloxone
T2 construct: purchased Perkin Elmer Biosignal
T2 sequence (P35372 whole entry): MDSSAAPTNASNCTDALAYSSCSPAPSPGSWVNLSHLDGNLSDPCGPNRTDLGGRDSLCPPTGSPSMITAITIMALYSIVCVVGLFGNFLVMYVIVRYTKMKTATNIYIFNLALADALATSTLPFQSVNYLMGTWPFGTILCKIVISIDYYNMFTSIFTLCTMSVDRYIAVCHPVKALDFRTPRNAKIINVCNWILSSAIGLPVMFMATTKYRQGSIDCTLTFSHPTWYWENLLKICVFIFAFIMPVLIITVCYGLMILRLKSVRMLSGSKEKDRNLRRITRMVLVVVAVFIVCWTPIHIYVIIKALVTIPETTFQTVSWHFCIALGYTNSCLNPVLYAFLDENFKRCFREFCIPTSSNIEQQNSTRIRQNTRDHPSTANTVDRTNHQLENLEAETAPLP
How it was run: as §1

Human Melanocortin (MC3) = molecular target: T3, Human Melanocortin (MC3) (Homo sapiens, UniProt P41968); experiment: Radioligand binding, human melanocortin MC3 membranes, FlashPlate, [125I]-NDP-αMSH; conditions: compound at 10 μM, [125I]-NDP-αMSH
T3 construct: purchased Perkin Elmer Biosignal
T3 sequence (P41968 whole entry): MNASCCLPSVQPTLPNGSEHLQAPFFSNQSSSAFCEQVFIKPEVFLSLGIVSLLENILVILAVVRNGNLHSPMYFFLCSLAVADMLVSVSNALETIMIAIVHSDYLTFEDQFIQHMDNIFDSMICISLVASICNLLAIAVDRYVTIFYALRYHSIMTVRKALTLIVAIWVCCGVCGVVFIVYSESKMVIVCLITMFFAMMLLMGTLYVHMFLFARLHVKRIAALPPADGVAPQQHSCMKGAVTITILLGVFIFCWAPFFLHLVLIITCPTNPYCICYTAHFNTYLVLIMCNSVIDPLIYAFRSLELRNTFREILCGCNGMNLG
How it was run: as §1

Human opioid (ORL1) = molecular target: T4, Human opioid (ORL1) (Homo sapiens, UniProt P41146); experiment: Radioligand binding, human opioid ORL1 membranes, FlashPlate, [125I]-Nociceptin; conditions: compound at 10 μM, [125I]-Nociceptin
T4 construct: purchased Perkin Elmer Biosignal
T4 sequence (P41146 whole entry): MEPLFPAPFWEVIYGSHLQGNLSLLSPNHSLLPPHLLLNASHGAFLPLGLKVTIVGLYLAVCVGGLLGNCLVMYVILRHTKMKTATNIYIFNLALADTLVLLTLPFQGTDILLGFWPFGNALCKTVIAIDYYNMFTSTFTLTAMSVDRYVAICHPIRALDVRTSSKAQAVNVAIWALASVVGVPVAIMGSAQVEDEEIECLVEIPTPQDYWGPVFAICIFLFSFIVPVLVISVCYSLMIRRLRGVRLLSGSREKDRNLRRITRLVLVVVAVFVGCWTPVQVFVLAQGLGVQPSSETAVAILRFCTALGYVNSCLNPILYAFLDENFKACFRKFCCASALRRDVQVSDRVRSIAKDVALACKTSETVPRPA
How it was run: as §1

Human neurokinin (NK1) = molecular target: T5, Human neurokinin (NK1) (Homo sapiens, UniProt P25103); experiment: Radioligand binding, human neurokinin NK1 membranes, filtration, [125I]-Substance P; conditions: compound at 10 μM, [125I]-Substance P
T5 construct: purchased Perkin Elmer Biosignal
T5 sequence (P25103 whole entry): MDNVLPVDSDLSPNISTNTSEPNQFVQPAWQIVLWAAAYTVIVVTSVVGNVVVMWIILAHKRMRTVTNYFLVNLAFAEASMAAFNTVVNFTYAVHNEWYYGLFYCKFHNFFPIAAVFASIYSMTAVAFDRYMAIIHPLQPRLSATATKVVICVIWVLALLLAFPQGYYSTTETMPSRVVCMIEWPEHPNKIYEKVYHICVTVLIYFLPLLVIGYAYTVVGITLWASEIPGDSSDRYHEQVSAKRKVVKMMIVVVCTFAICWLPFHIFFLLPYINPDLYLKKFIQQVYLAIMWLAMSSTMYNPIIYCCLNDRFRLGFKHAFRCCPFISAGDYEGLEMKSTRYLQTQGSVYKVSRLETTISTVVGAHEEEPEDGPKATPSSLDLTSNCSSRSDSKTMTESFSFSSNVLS
How it was run: (§2)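 Percent inhibition of radioligand binding measured on recombinant human membranes: NK1 with [125I]-Substance P, KOP with [3H]-Diprenorphine. Incubation 1 h at room temperature, then harvest onto 0.3% PEI-soaked filters, cold Tris-HCl pH 7.4 washes and scintillation counting; non-specific binding from reference ligand wells.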

[1] = molecular target: T6, Human melanin-concentrating hormone (MCH1) (Homo sapiens, UniProt Q99705); experiment: Radioligand binding, human melanin-concentrating hormone MCH1 membranes, FlashPlate, [125I]-S36057; conditions: compound at 10 μM
T6 construct: purchased Perkin Elmer Biosignal
T6 sequence (Q99705 whole entry): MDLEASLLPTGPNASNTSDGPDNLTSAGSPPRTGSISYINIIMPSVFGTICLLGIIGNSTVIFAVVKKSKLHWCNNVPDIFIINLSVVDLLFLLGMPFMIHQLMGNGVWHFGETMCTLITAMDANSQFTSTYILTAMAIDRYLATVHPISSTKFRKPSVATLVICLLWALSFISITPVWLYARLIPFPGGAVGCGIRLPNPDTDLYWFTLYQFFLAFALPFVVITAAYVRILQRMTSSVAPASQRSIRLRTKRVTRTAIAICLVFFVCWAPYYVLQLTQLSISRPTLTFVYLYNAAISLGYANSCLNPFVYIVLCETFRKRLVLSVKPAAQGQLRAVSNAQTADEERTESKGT
How it was run: as §1

Human melanocortin (MC5) = molecular target: T7, Human melanocortin (MC5) (Homo sapiens, UniProt P33032); experiment: Radioligand binding, human melanocortin MC5 membranes, FlashPlate, [125I]-NDP-αMSH; conditions: compound at 10 μM, [125I]-NDP-αMSH
T7 construct: purchased Perkin Elmer Biosignal
T7 sequence (P33032 whole entry): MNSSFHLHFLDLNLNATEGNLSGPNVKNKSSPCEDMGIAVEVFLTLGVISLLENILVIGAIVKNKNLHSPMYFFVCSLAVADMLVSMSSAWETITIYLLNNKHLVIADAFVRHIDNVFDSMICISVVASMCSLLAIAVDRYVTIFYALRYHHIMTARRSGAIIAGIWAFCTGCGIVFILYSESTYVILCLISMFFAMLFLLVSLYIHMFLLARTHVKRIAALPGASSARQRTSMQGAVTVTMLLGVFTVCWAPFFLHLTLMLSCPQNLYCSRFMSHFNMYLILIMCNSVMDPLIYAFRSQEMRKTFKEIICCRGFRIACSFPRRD
How it was run: as §1

[2] = molecular target: T8, Human neuropeptide Y (NPY-Y1) (Homo sapiens, UniProt P25929); experiment: Radioligand binding, human neuropeptide Y NPY-Y1 membranes, FlashPlate, [125I]-PYY; conditions: compound at 10 μM, [125I]-PYY
T8 construct: purchased Perkin Elmer Biosignal
T8 sequence (P25929 1-384): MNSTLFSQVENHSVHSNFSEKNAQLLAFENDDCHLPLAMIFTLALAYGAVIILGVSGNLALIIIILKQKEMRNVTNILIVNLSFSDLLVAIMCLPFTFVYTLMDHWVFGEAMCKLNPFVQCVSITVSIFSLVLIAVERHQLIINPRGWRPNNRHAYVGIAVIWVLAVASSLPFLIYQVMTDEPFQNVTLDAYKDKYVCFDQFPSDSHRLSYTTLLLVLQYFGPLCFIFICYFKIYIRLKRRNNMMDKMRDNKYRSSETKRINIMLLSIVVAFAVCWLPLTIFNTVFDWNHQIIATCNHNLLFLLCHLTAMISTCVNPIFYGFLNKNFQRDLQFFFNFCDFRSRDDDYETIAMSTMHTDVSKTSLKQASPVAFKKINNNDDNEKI
How it was run: as §1

Human Melanocortin (MC4) = molecular target: T9, Human Melanocortin (MC4) (Homo sapiens, UniProt P32245); experiment: Radioligand binding, human melanocortin MC4 membranes, FlashPlate, [125I]-NDP-αMSH; conditions: compound at 10 μM, [125I]-NDP-αMSH
T9 construct: purchased Perkin Elmer Biosignal
T9 sequence (P32245 whole entry): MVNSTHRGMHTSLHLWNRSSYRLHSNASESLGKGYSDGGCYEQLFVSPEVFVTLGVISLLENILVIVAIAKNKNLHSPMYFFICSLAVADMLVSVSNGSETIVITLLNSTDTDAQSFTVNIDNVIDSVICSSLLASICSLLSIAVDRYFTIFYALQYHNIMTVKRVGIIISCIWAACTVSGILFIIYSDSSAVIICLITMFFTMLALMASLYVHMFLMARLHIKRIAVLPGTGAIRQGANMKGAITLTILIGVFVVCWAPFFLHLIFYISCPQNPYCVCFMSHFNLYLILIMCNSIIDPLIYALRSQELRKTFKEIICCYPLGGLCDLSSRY
How it was run: as §1

Human κ-Opioid (KOP) = molecular target: T10, Human κ-Opioid (KOP) (Homo sapiens, UniProt P41145); experiment: Radioligand binding, human κ-opioid (KOP) membranes, filtration, [3H]-Diprenorphine; conditions: compound at 10 μM, [3H]-Diprenorphine
T10 construct: purchased Perkin Elmer Biosignal
T10 sequence (P41145 whole entry): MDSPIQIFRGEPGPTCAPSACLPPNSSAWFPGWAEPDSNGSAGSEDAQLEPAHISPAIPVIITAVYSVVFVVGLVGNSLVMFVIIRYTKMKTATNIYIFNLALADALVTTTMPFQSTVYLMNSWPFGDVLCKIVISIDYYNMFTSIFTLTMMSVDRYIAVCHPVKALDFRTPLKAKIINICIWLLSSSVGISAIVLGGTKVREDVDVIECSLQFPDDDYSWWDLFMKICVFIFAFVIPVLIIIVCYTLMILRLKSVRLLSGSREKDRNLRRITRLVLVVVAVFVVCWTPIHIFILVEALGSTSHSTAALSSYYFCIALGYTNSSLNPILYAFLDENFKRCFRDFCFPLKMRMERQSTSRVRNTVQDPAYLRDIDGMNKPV
How it was run: as §2

Mouse urotensin (mUR2) = molecular target: T11, Mouse urotensin (mUR2) (Mus musculus, UniProt Q8VIH9); experiment: Radioligand binding, mouse urotensin mUR2 membranes, FlashPlate, [125I]-Urotensin II; conditions: compound at 10 μM, [125I]-Urotensin II
T11 construct: purchased Perkin Elmer Biosignal
T11 sequence (Q8VIH9 1-385): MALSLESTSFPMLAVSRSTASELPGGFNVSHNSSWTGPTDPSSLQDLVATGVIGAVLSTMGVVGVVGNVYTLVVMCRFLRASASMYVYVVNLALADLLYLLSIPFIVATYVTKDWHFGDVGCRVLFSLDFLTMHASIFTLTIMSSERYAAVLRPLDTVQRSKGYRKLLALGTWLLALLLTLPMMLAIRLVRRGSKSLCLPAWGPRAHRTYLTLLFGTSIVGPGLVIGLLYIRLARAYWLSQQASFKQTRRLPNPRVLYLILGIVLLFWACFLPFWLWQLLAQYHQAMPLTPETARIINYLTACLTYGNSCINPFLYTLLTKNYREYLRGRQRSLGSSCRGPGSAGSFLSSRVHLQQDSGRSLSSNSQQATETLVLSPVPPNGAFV
How it was run: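 Cloned mouse urotensin (mUR2) receptor membranes from Perkin Elmer Biosignal were immobilized in FlashPlate microplates using a proprietary coating. Each well got 19.5 μl buffer, then 0.5 μl of DMSO, reference ligand, or compound. Adding 5 μl of [125I]-Urotensin II, diluted to 5× final concentration in binding buffer, started binding. Plates were sealed with TopSeal-A and incubated 1 hour at room temperature in the dark. Wells were counted for 30 seconds each on a TopCount after a 60-second delay, and percentage inhibition was calculated.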

T1 sequence (P41143 whole entry): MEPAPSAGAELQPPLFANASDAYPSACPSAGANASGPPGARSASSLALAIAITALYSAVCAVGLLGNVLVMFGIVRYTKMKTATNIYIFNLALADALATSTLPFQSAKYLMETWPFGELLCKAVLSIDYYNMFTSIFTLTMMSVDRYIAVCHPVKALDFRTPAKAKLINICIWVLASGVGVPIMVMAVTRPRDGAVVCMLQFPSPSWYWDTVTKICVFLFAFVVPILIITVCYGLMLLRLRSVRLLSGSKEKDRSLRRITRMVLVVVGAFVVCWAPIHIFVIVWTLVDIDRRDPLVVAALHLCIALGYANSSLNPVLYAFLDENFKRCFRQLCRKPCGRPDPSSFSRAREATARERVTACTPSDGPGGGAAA

N=C(N)NCCC(=O)N[C@H]1C(OCc2ccc(Cl)cc2)O[C@H](COCc2ccc(Cl)cc2)[C@@H](O)[C@@H]1OCc1ccc(-c2ccccc2)cc1 (stereo partly shown) [compound 537]
A1: inhibition of radioligand binding, human δ-opioid (DOP) (Human δ-opioid (DOP)): − (“−” indicates less than 50% inhibition at 10 μM)
A7: inhibition of radioligand binding, human μ-opioid (MOP) (Human μ-opioid (MOP)): − (“−” indicates less than 50% inhibition at 10 μM)
A3: inhibition of radioligand binding, human melanocortin (MC3) (Human Melanocortin (MC3)): + (“+” indicates greater than 50% inhibition at 10 μM)
A10: inhibition of radioligand binding, human opioid (ORL1) (Human opioid (ORL1)): + (“+” indicates greater than 50% inhibition at 10 μM)
A8: inhibition of radioligand binding, human neurokinin (NK1) (Human neurokinin (NK1)): + (“+” indicates greater than 50% inhibition at 10 μM)
A6: inhibition of radioligand binding, human melanin-concentrating hormone (MCH1) ([1]; [125I]-S36057): + (“+” indicates greater than 50% inhibition at 10 μM)
A5: inhibition of radioligand binding, human melanocortin (MC5) (Human melanocortin (MC5)): + (“+” indicates greater than 50% inhibition at 10 μM)
A9: inhibition of radioligand binding, human neuropeptide Y (NPY-Y1) ([2]; 10 µM): − (“−” indicates less than 50% inhibition at 10 μM)
A4: inhibition of radioligand binding, human melanocortin (MC4) (Human Melanocortin (MC4)): + (“+” indicates greater than 50% inhibition at 10 μM)
A2: inhibition of radioligand binding, human κ-opioid (KOP) (Human κ-Opioid (KOP); 10 µM): − (“−” indicates less than 50% inhibition at 10 μM)
A11: inhibition of radioligand binding, mouse urotensin (mUR2) (Mouse urotensin (mUR2); 10 µM): − (“−” indicates less than 50% inhibition at 10 μM)

COCC1OC(OCc2ccc3ccccc3c2)C(NC(=O)CCNC(=N)N)C(OCc2ccc(Cl)cc2)C1O (stereo not shown) [compound 238]
A1: inhibition of radioligand binding (Human δ-opioid (DOP); FlashPlate): + (“+” indicates greater than 50% inhibition at 10 μM)
A7: inhibition of radioligand binding (Human μ-opioid (MOP); FlashPlate): − (“−” indicates less than 50% inhibition at 10 μM)
A3: inhibition of radioligand binding (Human Melanocortin (MC3); FlashPlate): + (“+” indicates greater than 50% inhibition at 10 μM)
A10: inhibition of radioligand binding (Human opioid (ORL1); FlashPlate): + (“+” indicates greater than 50% inhibition at 10 μM)
A8: inhibition of radioligand binding (Human neurokinin (NK1); filtration): + (“+” indicates greater than 50% inhibition at 10 μM)
A6: inhibition of radioligand binding ([1]; [125I]-S36057, FlashPlate): + (“+” indicates greater than 50% inhibition at 10 μM)
A5: inhibition of radioligand binding (Human melanocortin (MC5); FlashPlate): + (“+” indicates greater than 50% inhibition at 10 μM)
A9: inhibition of radioligand binding ([2]; FlashPlate): − (“−” indicates less than 50% inhibition at 10 μM)
A4: inhibition of radioligand binding (Human Melanocortin (MC4); FlashPlate): + (“+” indicates greater than 50% inhibition at 10 μM)
A2: inhibition of radioligand binding (Human κ-Opioid (KOP); filtration): − (“−” indicates less than 50% inhibition at 10 μM)
A11: inhibition of radioligand binding (Mouse urotensin (mUR2); FlashPlate): − (“−” indicates less than 50% inhibition at 10 μM)
